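Results reflect a 48-hour exposure of cells in 96-well plates to compound at five concentrations. GI50: concentration for 50% inhibition of growth.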 Active and inactive are the calls of the source. Cut-off read from the data, not from the text of the source: active = GI50 up to about 1.1 µM and inactive = higher.
Columns and labels:
Experiment in all cases: inhibition of tumour cell growth, NCI panel, 48 h
UO-31 = system: UO-31
COLO 205 = system: COLO 205
HT-29 = system: HT-29
NCI-H226 = system: NCI-H226
SF-539 = system: SF-539
TK-10 = system: TK-10
SF-268 = system: SF-268
MCF7 = system: MCF7
OVCAR-8 = system: OVCAR-8
A498 = system: A498
T47D = system: T47D
IGROV-1 = system: IGROV-1
SW-620 = system: SW-620
CCRF-CEM = system: CCRF-CEM
SR = system: SR
KM12 = system: KM12
SF-295 = system: SF-295
HOP-92 = system: HOP-92
LOX IMVI = system: LOX IMVI
RXF 393 = system: RXF 393

SMILES | GI50 (UO-31) | GI50 (COLO 205) | GI50 (HT-29) | GI50 (NCI-H226) | GI50 (SF-539) | GI50 (TK-10) | GI50 (SF-268) | GI50 (MCF7) | GI50 (OVCAR-8) | GI50 (A498) | GI50 (T47D) | GI50 (IGROV-1) | GI50 (SW-620) | GI50 (CCRF-CEM) | GI50 (SR) | GI50 (KM12) | GI50 (SF-295) | GI50 (HOP-92) | GI50 (LOX IMVI) | GI50 (RXF 393)
C=C(C)C(=O)N1c2ccc(OC)cc2CC1C(=O)OCC (centres undefined) | > 100 µM (inactive) | > 100 µM (inactive) | > 100 µM (inactive) | > 100 µM (inactive) | > 100 µM (inactive) | > 100 µM (inactive) | > 100 µM (inactive) | > 100 µM (inactive) | > 100 µM (inactive) | > 100 µM (inactive) | 26.7 µM (inactive) | > 100 µM (inactive) | > 100 µM (inactive) | > 100 µM (inactive) | > 100 µM (inactive) | > 100 µM (inactive) | > 100 µM (inactive) |  |  | 
COc1ccc(N2C(=O)CS(=O)(=O)C2c2cccc(Oc3ccccc3)c2)cc1 (centres undefined) | 7.18 µM (inactive) | 3.29 µM (inactive) | 3.68 µM (inactive) | 4.79 µM (inactive) | 3.54 µM (inactive) | 2.65 µM (inactive) | 4.98 µM (inactive) | 1.87 µM (inactive) | 4.08 µM (inactive) |  | 7.45 µM (inactive) |  | 3.27 µM (inactive) | 5.25 µM (inactive) | 1.92 µM (inactive) | 4.4 µM (inactive) | 3.94 µM (inactive) | 7.52 µM (inactive) | 4.4 µM (inactive) | 4.04 µM (inactive)
CCN1C2=NCCN2S(=O)(=O)c2ccccc21 | > 100 µM (inactive) | > 100 µM (inactive) | > 100 µM (inactive) | > 100 µM (inactive) | > 100 µM (inactive) | > 100 µM (inactive) | > 100 µM (inactive) | > 100 µM (inactive) | > 100 µM (inactive) | > 100 µM (inactive) | > 100 µM (inactive) | > 100 µM (inactive) | > 100 µM (inactive) | > 100 µM (inactive) |  | > 100 µM (inactive) | > 100 µM (inactive) | > 100 µM (inactive) | > 100 µM (inactive) | > 100 µM (inactive)
Cc1cccc2c1C(=O)[C@@](C)([C@]1(C)Nc3cccc(C)c3C1=O)N2 | > 100 µM (inactive) | > 100 µM (inactive) | > 100 µM (inactive) | > 100 µM (inactive) | > 100 µM (inactive) |  | > 100 µM (inactive) | > 100 µM (inactive) | > 100 µM (inactive) | > 100 µM (inactive) | > 100 µM (inactive) | > 100 µM (inactive) | > 100 µM (inactive) | 49.4 µM (inactive) | > 100 µM (inactive) | > 100 µM (inactive) | > 100 µM (inactive) |  | > 100 µM (inactive) | > 100 µM (inactive)
CCOC(=O)c1c(-c2ccc(OC)cc2)ccn1C | > 10 µM (inactive) | > 10 µM (inactive) | > 10 µM (inactive) | > 10 µM (inactive) | 0.0975 µM (active) | > 10 µM (inactive) | > 8.41 µM (inactive) | > 10 µM (inactive) | > 10 µM (inactive) |  | > 10 µM (inactive) | > 10 µM (inactive) | > 10 µM (inactive) | > 10 µM (inactive) | > 10 µM (inactive) | > 10 µM (inactive) | > 10 µM (inactive) | > 10 µM (inactive) | 0.00227 µM (active) | 9.1 µM (inactive)
CCC/C(Cl)=N\OC(=O)Nc1cccc(C(F)(F)F)c1 | 19.6 µM (inactive) | 3.05 µM (inactive) | 21.8 µM (inactive) | 20.5 µM (inactive) | 18.7 µM (inactive) | 15.4 µM (inactive) | 27.3 µM (inactive) | 14 µM (inactive) | 17.9 µM (inactive) | 17.8 µM (inactive) | 23.9 µM (inactive) | 17.1 µM (inactive) | 2.81 µM (inactive) | 2.43 µM (inactive) | 2.26 µM (inactive) | 17.6 µM (inactive) | 13.5 µM (inactive) |  | 6.84 µM (inactive) | 19.6 µM (inactive)
N=C(N)NS(=O)(=O)c1ccc(/N=N/c2c(O)c(C(=O)O)cc3ccccc23)cc1 | > 100 µM (inactive) | > 100 µM (inactive) | > 100 µM (inactive) | > 100 µM (inactive) | > 100 µM (inactive) | > 100 µM (inactive) | > 100 µM (inactive) | > 100 µM (inactive) | > 100 µM (inactive) |  | > 100 µM (inactive) | > 100 µM (inactive) | > 100 µM (inactive) | > 100 µM (inactive) | > 100 µM (inactive) | > 100 µM (inactive) | > 100 µM (inactive) | > 100 µM (inactive) |  | > 100 µM (inactive)
O/N=C1/CCCc2nonc21 | > 100 µM (inactive) | > 100 µM (inactive) | > 100 µM (inactive) | > 100 µM (inactive) | > 100 µM (inactive) | > 100 µM (inactive) | > 100 µM (inactive) | > 100 µM (inactive) | > 100 µM (inactive) |  | > 100 µM (inactive) | > 100 µM (inactive) | > 100 µM (inactive) | > 100 µM (inactive) | > 100 µM (inactive) | > 100 µM (inactive) | > 100 µM (inactive) | > 100 µM (inactive) | > 100 µM (inactive) | > 100 µM (inactive)
COc1cc2nc(-c3cccs3)nc(Nc3cccc([N+](=O)[O-])c3)c2cc1OC | 19.2 µM (inactive) | 19.3 µM (inactive) | 28.1 µM (inactive) | 18.2 µM (inactive) | 18.2 µM (inactive) | 20.8 µM (inactive) | 20.3 µM (inactive) | 24.9 µM (inactive) | 21.5 µM (inactive) | > 100 µM (inactive) | 16.4 µM (inactive) | 17.3 µM (inactive) | 24.2 µM (inactive) | 31.5 µM (inactive) | 10.8 µM (inactive) | 17.9 µM (inactive) | 21.6 µM (inactive) |  | 18.4 µM (inactive) | 25.9 µM (inactive)
CCC(CCN)(CCN)[N+](=O)[O-] |  | > 100 µM (inactive) | > 100 µM (inactive) |  | > 100 µM (inactive) |  | > 100 µM (inactive) | > 100 µM (inactive) | > 100 µM (inactive) |  | > 100 µM (inactive) | > 100 µM (inactive) | > 100 µM (inactive) |  | > 100 µM (inactive) | > 100 µM (inactive) | > 100 µM (inactive) | > 100 µM (inactive) |  | > 100 µM (inactive)
COc1cccc(/C=C2\N=C(c3ccccc3)OC2=O)c1 | > 100 µM (inactive) | 85.1 µM (inactive) | > 100 µM (inactive) | 37.8 µM (inactive) | 43.1 µM (inactive) | > 100 µM (inactive) | > 100 µM (inactive) | > 100 µM (inactive) | 64.4 µM (inactive) |  | > 100 µM (inactive) | 34.1 µM (inactive) | > 100 µM (inactive) | 25 µM (inactive) | 23.1 µM (inactive) | 73.5 µM (inactive) | > 100 µM (inactive) | > 100 µM (inactive) | 26.4 µM (inactive) | > 100 µM (inactive)
